In general, Ki refers to a measure of affinity in units of concentration, obtained from inhibition or displacement. Read a low Ki as a stronger hold on the target. As a reminder, the Kd is the concentration at which binding is half-saturated.

The text below walks through data of paper PMC9784403 (Pharmaceuticals, 2022).

In assay [1] the target is T1, σ2R/TMEM97 (Rattus norvegicus, UniProt Q5U3Y7).
T1 sequence (Q5U3Y7 1-176): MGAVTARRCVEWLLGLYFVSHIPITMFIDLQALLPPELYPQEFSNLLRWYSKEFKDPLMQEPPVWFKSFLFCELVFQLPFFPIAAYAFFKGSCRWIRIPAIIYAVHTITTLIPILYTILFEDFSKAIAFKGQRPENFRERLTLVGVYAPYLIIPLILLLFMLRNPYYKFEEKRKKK
The experiment in a line: Competitive receptor binding assay with [125I]RHM-4.
Procedure: Briefly, the livers of female SD rats (Rockland, ME, USA) were dissected and homogenized using a Wheaton overhead stirrer (120 Vac Overhead Stirrer, Millville, NJ, USA) in 10 mL/g tissue weight of ice-cold 10mM Tris-HCl/0.32M Sucrose, pH 7.4. The crude homogenate was centrifuged for 10 min at 1000× g at 4 °C, the pellets were discarded, and the supernatant was further centrifuged at 31,000× g for 20 min at 4 °C. The supernatant was discarded, and the pellet was resuspended in 3 mL/g of ice-cold 10 mM Tris-HCl/0.32M sucrose, pH 7.4, and centrifuged again at 31,000× g for 20 min at 4 °C. After centrifugation, the pellets were resuspended in 1 mL of 50mM Tris-HCl, pH 7.4, and stored at −80 °C.
The inhibition constant [14] values of the tested ligands were determined using the Cheng and Prussoff equation [35], and the mean Ki values ± SEM were reported for at least three independent experiments.

Assay [2] addresses T1, σ2R/TMEM97. In words: Competitive receptor binding assay with [3H]DTG (σ1R masked with (+)-pentazocine).
Procedure: After incubation, the bound ligands were filtered using an M-24 Brandel filtration system (Brandel, Gaithersburg, MD, USA), collected on glass fiber paper (Whatman grade 934-AH, GE Healthcare Bio-Sciences, Pittsburgh, PA, USA), and counted using a MicroBeta2 Microplate counter 2450 (Perkin Elmer, Boston, MA, USA) or Wizard2 Automatic Gamma Counter 2470 (Perkin Elmer, Boston, MA, USA). The inhibition constant [14] values of the tested ligands were determined using the Cheng and Prussoff equation [35], and the mean Ki values ± SEM were reported for at least three independent experiments.
Another assay addresses T2, σ1R (Cavia porcellus, UniProt Q60492).
T2 construct: 100 μg of the brain membrane from male Guinea pigs; from tissue; host or cells: brain membranes of male guinea pigs
The experiment in a line: σ1R competitive binding assay with [3H](+)-pentazocine. The settings on record: [3H](+)-pentazocine 5 nM; Guinea pig brain membrane; 90 min at 37 °C. The text has this: For the σ1R assay, [^3H]Pentazocine (Perkin Elmer, Boston, MA, USA) was used as the radioligand to define the σ1R binding affinity of the test compounds, and the protocol followed the references published before with minor modification. […] Afterward, the filter paper collection, signal counting procedure, and data analysis were in line with the study of [^3H]DTG mentioned above.

The subject of assay [3] is TMEM97-knocked out HeLa cells. More on the design: method as in PMID 30443021. The following applies: cited from earlier work.
The target of assay [4] is T1, σ2R/TMEM97. The assay is classed as binding. More on the design: from tissue; host or cells: liver membranes of Sprague-Dawley rats. As to the method: All Kd and Bmax values were calculated via a nonlinear regression method using Prism, and the protein concentrations were determined using Lowry et al.’s method with BSA as the standard.

Where “and” joins values, the source holds several entries; their conditions need not be identical. Identical values can stand only once. Bounds are passed on as bounds.

T2 sequence (Q60492 whole entry): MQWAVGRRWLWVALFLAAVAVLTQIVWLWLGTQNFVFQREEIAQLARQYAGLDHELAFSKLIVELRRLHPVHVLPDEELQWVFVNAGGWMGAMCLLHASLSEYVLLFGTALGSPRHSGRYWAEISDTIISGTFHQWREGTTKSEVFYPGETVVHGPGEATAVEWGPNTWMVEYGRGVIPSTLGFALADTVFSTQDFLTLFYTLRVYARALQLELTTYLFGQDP

On to `COc1cc2c(cc1OC)CN(CCCCNC(=O)c1cc(I)cc(OC)c1OC)CC2` [RHM-4], for which the Ki on σ2R/TMEM97 [1] is 0.2 ± 0.1 nM; at σ2R/TMEM97 [2], 11.7 ± 2.4 nM. Also, the “fold increase of σ2R/TMEM97 affinity by combination of fragments 1 and 2” value at σ2R/TMEM97 [1] (RHM-4 versus fragments 1 and 2) is recorded as “approximately 10 fold”.
Regarding `CCCCNC(=O)c1cc(C)ccc1OCCF` [compound 1], the Ki at σ1R is 1310 ± 87 nM; on σ2R/TMEM97 [1] it was > 10000 nM; at σ2R/TMEM97 [2] it was > 10000 nM.
Consider `COc1ccc(C)cc1NC(=O)OC1CC2CCCC(C1)N2CCCCCCN` (centres unmarked) [SV119, reference compound], for which the Ki at σ2R/TMEM97 [1] stood at 35 ± 4 nM; on σ2R/TMEM97 [2] it was 44.3 ± 7.3 nM.
With `COc1cccc2c1CCCC2CCCN1CCN(C2CCCCC2)CC1` (centres unmarked) [PB-28, reference compound], the Ki on σ2R/TMEM97 [1] came to 0.1 nM.
On to `CCCCN1CCc2cc(OC)c(OC)cc2C1` [compound 2], for which the figures for the Ki at σ1R, at σ2R/TMEM97 [1] and at σ2R/TMEM97 [2] were 38 ± 3.3 nM, 7 ± 3.9 nM and 10.4 ± 3.4 nM, respectively.
`Cc1ccc2c(c1)C1CN(C)CCC1N2C(=O)CSc1nnnn1-c1ccc(Cl)cc1` (centres unmarked) [AG-205, reference compound]: the Ki on σ2R/TMEM97 [1] was determined as 571 ± 82.1 nM; on σ2R/TMEM97 [2], 807 ± 238 nM.
For the compound `COc1cc2c(cc1OC)CN(CCCCc1cc(-c3cc(C)ccc3OCCF)no1)CC2` [compound 3], the results for the Ki on σ1R, on σ2R/TMEM97 [1] and on σ2R/TMEM97 [2] were 715 ± 46 nM, 0.24 ± 0.02 nM and 2.3 ± 0.4 nM, respectively.
In the case of `C=CCN(C)CCCCCCOc1ccc(C(=O)c2ccc(Br)cc2)c(F)c1` [Ro 48-8071, reference compound], the results for the Ki on σ2R/TMEM97 [1] and at σ2R/TMEM97 [2] were 73 ± 32.7 nM and 370 ± 230 nM, respectively.
As for `Cc1ccccc1NC(=N)Nc1ccccc1C` [[^3H]DTG, reference compound], in assay [3] (read-out: Kd of retained low-affinity binding site), the Kd is ~300 nM.
For the compound `COc1cc2c(cc1OC)CN(CCCCc1cc(-c3ccc(F)cc3)no1)CC2` [compound 4], the Ki at σ1R was determined as 800 ± 23 nM; on σ2R/TMEM97 [1] it was 0.05 ± 0.01 nM; at σ2R/TMEM97 [2], 0.6 ± 0.3 nM.
In the case of `COc1cc2c(cc1OC)CN(CCCCNC(=O)c1cc([125I])cc(OC)c1OC)CC2` [[^125I]RHM-4], in assay [3], the “specific binding after knocking out TMEM97” value is recorded as “completely eliminated”. At σ2R/TMEM97 [4] (SD rat liver membranes, saturation binding, 100 nM (+)-pentazocine added for [3H]DTG, n = 3), this compound gave a Kd of 0.2 nM. The “Bmax (binding capacity)” value at σ2R/TMEM97 [4] (SD rat liver membranes, saturation binding, n = 3) is 3894 ± 50 fmol/mg and 3894 ± 90 fmol/mg. Besides, at σ2R/TMEM97 [4] (ratio of binding affinities of the two radioligands), the “fold higher σ2R/TMEM97 affinity than that of [3H]DTG” value was ~ 50 fold.
As for `COc1cc2c(cc1OC)CN(CCc1ccc(NC(=O)c3cccc4c(=O)c5cccc(OC)c5[nH]c34)cc1)CC2` [Elacridar, reference compound], the Ki was found to be 0.9 ± 0.3 nM at σ2R/TMEM97 [1] and 11.7 ± 0.7 nM at σ2R/TMEM97 [2].
